# Key:
# [1] = system: PNT2 non-cancerous human prostate cells; assay: 24-hour MTT chemosensitivity assay with 72-hour recovery, PNT2; assay type: cell-based; conditions: 24 h exposure, 72 h recovery, MTT; read-out: IC50 values ±SD, PNT2
# Protocol: (§1) Chemosensitivity studies were undertaken using a 24‐hour MTT assay, with a 72‐hour recovery period. The IC50 values were determined against ovarian A2780 (cisplatin‐sensitive) and A2780cisR (cisplatin‐resistant) cancer cell lines, non‐small‐cell lung H460 cancer cell line, and normal prostate PNT2 cell line, exposed to each of compounds 4–8, cisplatin or the phosphine ligands (Table 1 and S4, Figures S29–S31). […] This is unusual but can be related to solubility issues not visible for the naked eye and thus hindering its activity in cells. […] When tested on their own, the phosphine ligands are not active below 100 μM for all four cell lines. […] This therefore prevents comparison with the well‐known RAPTA family, and more especially with RAPTA−C which bears a PTA ligand and a p‐cym ligand, making this complex relatively similar in terms of geometry with complex 4.[21] […] This confirms the interest of the sulfur coordinating atom in terms of cytotoxicity for organoruthenium complexes.[23]
# (§2) Chemosensitivity assay: In vitro chemosensitivity tests were performed against A2780, A2780cisR, PNT2 and H460 cells. Cells were routinely maintained as monolayer cultures in RPMI 1640 medium supplemented with 10 % foetal calf serum, penicillin (100 I.U./mL) and streptomycin (100 μg/mL), sodium pyruvate (1 mM) and L‐glutamine (2 mM). For chemosensitivity studies, cells were seeded in 96‐well plates at a concentration of 7.5×10^3 cells per well and the plates were incubated for 24 h at 37 °C and a 5 % CO2 humidified atmosphere prior to drug exposure.
# (§3) Complexes were dissolved in either DMSO (complexes 4, 5, and 8) or PBS (complexes 6 and 7) to provide stock solutions which were further diluted with media to provide a range of final concentrations. Drug‐media solutions were added to cells (the final concentration of DMSO was less than 1 % (v/v) in all cases) and incubated for 24 h at 37 °C and a 5 % CO2 humidified atmosphere. The drug‐media solution was removed from the wells and the cells were washed with PBS (100 μL, twice) and 200 μL of complete fresh media were added to each well. The plates were further incubated for 72 h at 37 °C and a 5 % CO2 humidified atmosphere to allow for a period of recovery. 3‐(4,5‐dimethylthiazol‐2‐yl)‐2,5‐diphenyltetrazolium bromide (MTT) (40 μL, 2.5 mg/mL) was added to each well and plates were incubated for 2 h. All solutions were then removed and 100 μL of DMSO was added to each well in order to dissolve the purple formazan crystals. A Thermo Scientific Multiskan EX microplate photometer was used to measure the absorbance in each well at 570 nm. Cell survival was determined as the absorbance of treated cells divided by the absorbance of controls and expressed as a percentage. The IC50 values were determined from plots of % survival against drug concentration. Each experiment was repeated in triplicates of triplicates and a mean value was obtained and stated as IC50 (μM) ± SD. Untreated cells were used as a negative control, and cells treated with cisplatin were used as a positive control.
# [2] = system: A2780 cells; assay: JC-10 mitochondrial membrane potential assay by flow cytometry; assay type: cell-based, human; conditions: A2780, 24 h, complexes at IC50, cisplatin 6.5 µM
# From the text: A membrane potential sensitive fluorescent probe JC‐10 was used to determine whether the apoptosis induced by complexes 6 and 8 is accompanied by changes in the mitochondrial membrane potential (ΔΨm) of A2780 cells. JC‐10 aggregates inside mitochondria and emits orange fluorescence. Following membrane […], JC‐10 is disaggregated and this in turn reduces the orange fluorescence.
# Figure 8 Effect of complexes 6 and 8 on the mitochondrial membrane potential. […] The percentages of cells with depolarised mitochondrial membrane potential were assessed by flow cytometry after staining with JC‐10. The data are expressed as the means±SD of the three individual experiments.
# Mitochondrial membrane potential assay: Analysis of the changes of mitochondrial potential in A2780 cells after exposure to complexes 6 and 8 was carried out using the JC‐10 mitochondrial membrane potential assay kit (abcam®) according to the manufacturer's instructions. Briefly, 1.0×10^6 cells per well were seeded in a 6‐well plate and incubated for 24 at 37 °C and a 5 % CO2 humidified atmosphere. […] Supernatants were removed by suction, and each well was washed with PBS before detaching the cells using trypsin. Staining of the samples was done in tubes protected from light, incubating for 30 min in the dark at room temperature. Samples were immediately analysed on a BD Accuri C6 Plus System Flow Cytometer, reading the reduction of fluorescence in the FL2 channel.
# [3] = system: A2780 subcutaneous tumour xenograft; assay: Efficacy in A2780 subcutaneous tumour xenograft model; assay type: in vivo, Female Balb/c immunodeficient nude mice; conditions: 6 at 50 mg/kg, 8 at 15 mg/kg, i.p.; for Maximum % weight loss / Median time to RTV2: days 0–4; for Growth delay: days 0–4, versus untreated
# Protocol: Compounds: All compounds were provided in powdered form and stored in the −20 °C freezer. They were formulated just before use. […] The drugs were then administered within 10 minutes of initial dilution.
# Animals: Female Balb/c immunodeficient nude mice aged 6–12 weeks were used (Envigo, Blackthorn, UK). Mice were kept in cages housed in isolation cabinets in an air‐conditioned room with regular alternating cycles of light and darkness. They received Teklad 2018 diet (Envigo, Blackthorn, UK) and water ad libitum. All animal procedures were carried out under a project licence issued by the UK Home Office and UK National Cancer Research Institute Guidelines for the Welfare of Animals were followed throughout.
# S.c. xenograft tumours: A2780/WT and A2780/cis tumours were excised from a donor animal, placed in sterile physiological saline containing antibiotics and cut into small fragments of approximately 5 mm^3. Under brief general inhalation anaesthesia, fragments were implanted in the flank of each mouse using a trocar. Once the tumours could accurately be measured by callipers, the mice were allocated into groups (control or treated) by restricted randomisation to keep group mean tumour size variation to a minimum, with 3 animals set up per group.
# Evaluation of efficacy in s.c. xenograft models: The compounds were prepared fresh on the days of treatment as described above and administered i. p. to mice on days 0–4 in a volume of 0.1 mL per 10 g of body weight. […] The negative control group was untreated.
# The effects of therapy were assessed by frequent monitoring growth of the tumours and body weight. Two‐dimensional calliper measurements of the tumours were taken, and volumes calculated using the formula (a^2×b)/2, where a is the smaller and b the larger diameter of the tumour. Tumour volume was then normalised to the respective volume on day 0, and semi‐log plots of relative tumour volume (RTV) versus time were made. Mann‐Whitney U tests were performed to determine the statistical significance of any differences in growth rate (based on tumour volume doubling time, RTV2) between control and treated groups.
# [4] = system: A2780cisR cisplatin-resistant ovarian cancer cells; assay: 24-hour MTT chemosensitivity assay with 72-hour recovery, A2780cisR; assay type: cell-based, human; conditions: for IC50: 24 h exposure, 72 h recovery, MTT, read-out: IC50 values ±SD, A2780cisR; for Selectivity index (SI), A2780cisR: mean IC50 PNT2 / mean IC50 A2780cisR
# Protocol: as §1, §2, §3
Compound,IC50 [1] [µM],% cell population with high orange fluorescence ([2]; Experiment 1) [%],% cell population with low orange fluorescence ([2]; Experiment 1) [%],% cell population with high orange fluorescence ([2]; Experiment 2) [%],% cell population with low orange fluorescence ([2]; Experiment 2) [%],% cell population with high orange fluorescence ([2]; Experiment 3) [%],% cell population with low orange fluorescence ([2]; Experiment 3) [%],"% cell population with high orange fluorescence ([2]; Summary, mean values ± SD) [%]","% cell population with low orange fluorescence ([2]; Summary, mean values ± SD) [%]",Toxicity in xenograft study [3],Maximum % weight loss [3] [%],Median time to RTV2 [3] [days],Growth delay [3] [days],IC50 [4] [µM],"Selectivity index (SI), A2780cisR [4]","Selectivity factor (cross-resistance, resistance factor RF) ([4]; IC50 A2780cisR / IC50 A2780)"
"Cc1ccc(C(C)C)cc1.N#CC1=C(C#N)[S][Ru-]([P+](c2ccccc2)(c2ccccc2)c2ccccc2)[S]1 [Complex 8, (η^6‐p‐cymene)(PPh3)Ru(Mnt)]",2.4 ± 0.2,81.9,18.1,82.5,17.5,80.0,20.0,81.5 ± 1.3,18.5 ± 1.3,No toxicity was observed,0,1.5,0.1,0.98 ± 0.06,2.45,
(η^6‐p‐cymene)(TPPTS)Ru(Mnt) [Complex 6],1.6 ± 0.3,60.4,39.6,55.5,44.5,62.7,37.3,59.5 ± 3.7,40.5 ± 3.7,,0,2.0,0.6,1.3 ± 0.01,1.23,2.2

# — PMC9545474, “Anticancer Water‐Soluble Organoruthenium Complexes: Synthesis and Preclinical Evaluation” (Chembiochem, 2022)
